# From patent US20250248954A1, “PHARMACEUTICAL COMPOSITION FOR PREVENTING OR TREATING DIABETIC STROKE, CONTAINING RAGE ANTAGONIST AND AGE SCAVENGER” (AJOU UNIVERSITY INDUSTRY-ACADEMIC COOPERATION FOUNDATION, priority 2022, published 2025)
# Legend:
# Format in all cases: in vivo, SD rats
# [1] = test system: experimental animal model of diabetes mellitus (DM) subjected to tMCAO; assay: Diabetic (STZ, 34 days) rat 30-minute tMCAO model: body weight, blood glucose, glycated hemoglobin, brain injury by MRI; conditions: diabetic rats, vs DM-vehicle
# Experimental: (§1) Specifically, these were carried out as follows. To produce an experimental animal model of diabetes mellitus (DM), 7-week-old male SD rats were fasted for 16 hours. Thereafter, streptozotocin (STZ) was administered to the rats, and on day 3, blood glucose levels were measured. The rats were divided into a vehicle group and an aminoguanidine (AG) group, which had similar average blood glucose levels, and were maintained for 34 days. The AG group was orally administered 100 mg/kg of aminoguanidine once a day starting from day 4 after diabetes induction, and was finally administered aminoguanidine within 30 minutes after MCAO. On day 1 after MCAO, the mNSS test shown in FIG. 9 was performed, and then cerebral infarction was checked using an animal MRI system. Next, the rats were sacrificed, and plasma and brain tissue were collected and analyzed. For comparison, protein expression in the brain tissue from normal rats (sham) was used as a control. The impact on diabetes was evaluated by checking changes in body weight and blood glucose levels once a week after diabetes induction and checking final glycated hemoglobin levels after MCAO. To evaluate brain injury, the volume of cerebral infarction was determined using an animal MRI system.
# MGH1 = MGH1 expression in brain tissue of diabetic tMCAO groups by immunohistochemical staining and Western blot; conditions: diabetic rats, day 1 after MCAO; 100 mg/kg orally once a day from day 4; vs vehicle group; FIG. 8
# Experimental: as §1, with “control.” for “control. The impact on diabetes was evaluated by checking changes in body weight and blood glucose levels once a week after diabetes induction and checking final glycated hemoglobin levels after MCAO. To evaluate brain injury, the volume of cerebral infarction was determined using an animal MRI system.”
# Day 1 after MCAO, the expression levels of MGH1 in the brain tissues from the diabetic groups were analyzed by immunohistochemical staining and Western blot analysis.
# [2] = test system: hyperglycemic model subjected to temporary middle cerebral artery occlusion (tMCAO); assay: Hyperglycemic (STZ) rat 30-minute tMCAO cerebral ischemia model: body weight, mNSS test, brain injury (cresyl violet); conditions: 30 min MCAO, 10 mg/kg i.p. once a day
# Experimental: (§2) Specifically, these were carried out as follows. To produce an experimental animal model, 7-week-old male SD rats were fasted for 16 hours. Thereafter, streptozotocin (STZ) was administered to the rats, and after 3 days, fasting blood glucose levels were measured in the tail vein, and only animals with a blood glucose level of 300 mg/dl or more were used as a hyperglycemic model. A cerebral ischemia model was produced by subjecting the produced hyperglycemic model or a normoglycemic model to temporary middle cerebral artery occlusion (tMCAO). For MCAO, a coated suture was inserted through the right external carotid artery into the internal carotid artery, and inserted approximately 19 mm up to the middle cerebral artery (MCA). 30 minutes or 2 hours after insertion, the coated suture was removed, and a reperfusion model was used as a cerebral ischemia model. […] The normoglycemic group (NG), after 2 hours of MCAO, was divided into a vehicle group and an FPS-ZM1 group and used in the experiment. The hyperglycemic group (HG), after 30 minutes of MCAO, was divided into a vehicle group and an FPS-ZM1 group and used in the experiment. The FPS-ZM1 group in each of the normoglycemic group and the hyperglycemic group was injected intraperitoneally with 10 mg/kg of FPS-ZM1 within 5 minutes after MCAO reperfusion and injected with FPS-ZM1 once a day. After surgery, the mNSS (modified neurological severity score) test shown in FIG. 9 and weight measurement were conducted at a certain time every day to check body weight changes and neurobehavioral deficits of the experimental animals. In addition, rats were sacrificed 3 days after MCAO, and plasma and brain tissue were collected and analyzed.
# (§3) After performing MCAO, body weight measurement and the mNSS test were performed at the same time every day.
# (§4) To evaluate brain injury, the volume of cerebral infarction was determined by staining the entire brain with cresyl violet at 1-mm intervals.
# [3] = test system: neuronal cell death in the cerebral cortex; assay: Cresyl violet staining of cerebral cortex, normoglycemic tMCAO group; conditions: NG, 2 h MCAO; 10 mg/kg i.p.; vs sham group; FIG. 4
# Experimental: Specifically, these were carried out as follows. To produce an experimental animal model, 7-week-old male SD rats were fasted for 16 hours. Thereafter, streptozotocin (STZ) was administered to the rats, and after 3 days, fasting blood glucose levels were measured in the tail vein, and only animals with a blood glucose level of 300 mg/dl or more were used as a hyperglycemic model. A cerebral ischemia model was produced by subjecting the produced hyperglycemic model or a normoglycemic model to temporary middle cerebral artery occlusion (tMCAO). For MCAO, a coated suture was inserted through the right external carotid artery into the internal carotid artery, and inserted approximately 19 mm up to the middle cerebral artery (MCA). 30 minutes or 2 hours after insertion, the coated suture was removed, and a reperfusion model was used as a cerebral ischemia model. Since cerebral infarction was rarely found in normoglycemic animals after 30-minute MCAO, a model subjected to 2 hours of MCAO was used and compared with the hyperglycemic group. […] In addition, rats were sacrificed 3 days after MCAO, and plasma and brain tissue were collected and analyzed.
# The degree of neuronal cell death in the cerebral cortex from each experimental group was analyzed using cresyl violet staining. […]
# [4] = test system: neuronal cell death, astrocytes and microglia, AGE and MGH1 in the cerebral cortex; assay: Cresyl violet and immunohistochemical staining of cerebral cortex, hyperglycemic tMCAO group; conditions: HG, 30 min MCAO; 10 mg/kg i.p.; FIG. 4
# Experimental: Specifically, these were carried out as follows. To produce an experimental animal model, 7-week-old male SD rats were fasted for 16 hours. Thereafter, streptozotocin (STZ) was administered to the rats, and after 3 days, fasting blood glucose levels were measured in the tail vein, and only animals with a blood glucose level of 300 mg/dl or more were used as a hyperglycemic model. A cerebral ischemia model was produced by subjecting the produced hyperglycemic model or a normoglycemic model to temporary middle cerebral artery occlusion (tMCAO). For MCAO, a coated suture was inserted through the right external carotid artery into the internal carotid artery, and inserted approximately 19 mm up to the middle cerebral artery (MCA). 30 minutes or 2 hours after insertion, the coated suture was removed, and a reperfusion model was used as a cerebral ischemia model. Since cerebral infarction was rarely found in normoglycemic animals after 30-minute MCAO, a model subjected to 2 hours of MCAO was used and compared with the hyperglycemic group. The normoglycemic group (NG), after 2 hours of MCAO, was divided into a vehicle group and an FPS-ZM1 group and used in the experiment. The hyperglycemic group (HG), after 30 minutes of MCAO, was divided into a vehicle group and an FPS-ZM1 group and used in the experiment. The FPS-ZM1 group in each of the normoglycemic group and the hyperglycemic group was injected intraperitoneally with 10 mg/kg of FPS-ZM1 within 5 minutes after MCAO reperfusion and injected with FPS-ZM1 once a day. After surgery, the mNSS (modified neurological severity score) test shown in FIG. 9 and weight measurement were conducted at a certain time every day to check body weight changes and neurobehavioral deficits of the experimental animals. In addition, rats were sacrificed 3 days after MCAO, and plasma and brain tissue were collected and analyzed.
# The degree of neuronal cell death in the cerebral cortex from each experimental group was analyzed using cresyl violet staining. In addition, immunohistochemistry was used to analyze the level of activity of astrocytes and microglia and the expression levels of AGE and MGH1 in the cells.
# [5] = test system: RAGE, AGE, methylglyoxal (MGH1), GFAP; assay: Western blot analysis of protein expression in brain tissue, hyperglycemic tMCAO group; conditions: HG, 30 min MCAO, 10 mg/kg i.p.
# Experimental: as §2, with “analyzed. After all experiments were completed, the protein expression levels of RAGE, AGE, and methylglyoxal (MGH1) in the brain tissue from each experimental group were analyzed by Western blot analysis. For comparison, protein expression in the brain tissue from normal rats (sham) was used as a control.” for “analyzed.”
# [6] = test system: RAGE, AGE, methylglyoxal (MGH1); assay: Western blot analysis of protein expression in brain tissue, normoglycemic tMCAO group; conditions: NG, 2 h MCAO, 10 mg/kg i.p.
# Experimental: as §2, with “analyzed. After all experiments were completed, the protein expression levels of RAGE, AGE, and methylglyoxal (MGH1) in the brain tissue from each experimental group were analyzed by Western blot analysis. For comparison, protein expression in the brain tissue from normal rats (sham) was used as a control.” for “analyzed.”
# [7] = test system: normoglycemic model subjected to temporary middle cerebral artery occlusion (tMCAO); assay: Normoglycemic rat 2-hour tMCAO cerebral ischemia model: body weight, brain injury (cresyl violet); conditions: 2 h MCAO, 10 mg/kg i.p. once a day
# Experimental: as §2, §3, §4
# [8] = test system: ZO-1, occludin, claudin, Tie-2, VEGF, Ang-1, MMP-2, MMP-9; assay: Real-time PCR of vascular-related factors in brain tissue after tMCAO; conditions: 10 mg/kg i.p., FIG. 5
# Experimental: Specifically, these were carried out as follows. To produce an experimental animal model, 7-week-old male SD rats were fasted for 16 hours. Thereafter, streptozotocin (STZ) was administered to the rats, and after 3 days, fasting blood glucose levels were measured in the tail vein, and only animals with a blood glucose level of 300 mg/dl or more were used as a hyperglycemic model. A cerebral ischemia model was produced by subjecting the produced hyperglycemic model or a normoglycemic model to temporary middle cerebral artery occlusion (tMCAO). For MCAO, a coated suture was inserted through the right external carotid artery into the internal carotid artery, and inserted approximately 19 mm up to the middle cerebral artery (MCA). 30 minutes or 2 hours after insertion, the coated suture was removed, and a reperfusion model was used as a cerebral ischemia model. […] The normoglycemic group (NG), after 2 hours of MCAO, was divided into a vehicle group and an FPS-ZM1 group and used in the experiment. The hyperglycemic group (HG), after 30 minutes of MCAO, was divided into a vehicle group and an FPS-ZM1 group and used in the experiment. […] In addition, rats were sacrificed 3 days after MCAO, and plasma and brain tissue were collected and analyzed.
# [9] = HG, 3 days after MCAO, vs HG-vehicle, cresyl violet
# [10] = NG, 3 days after MCAO, vs NG-vehicle
smiles,measurement,setting,value
"N=C(N)NN [AG, aminoguanidine]","brain injury (volume of cerebral infarction, animal MRI)","[1]; 30 min MCAO on day 34, 100 mg/kg orally once a day from day 4, day 1 after MCAO",no significant difference
same,glycated hemoglobin level,"[1]; 100 mg/kg orally once a day from day 4, after MCAO",no significant difference
same,blood glucose level,[1]; 100 mg/kg orally once a day from day 4,no significant difference
same,change in body weight,[1]; 100 mg/kg orally once a day from day 4 after diabetes induction,not significantly different
same,expression level of MGH1 in brain tissue (immunohistochemical staining and Western blot),MGH1,decreased
O=C(c1ccc(Cl)cc1)N(Cc1ccccc1)C1CCCCC1 [FPS-ZM1],cross-sectional area of injury,[2]; [9],significantly decreased
same,volume of actual injury,[2]; [9],more significant in the HG-FPS-ZM1 group than in the HG-vehicle group
same,mNSS score,"[2]; HG, vs the other MCAO groups, FIG. 1C",significantly lower than those in the other groups
same,body weight change after MCAO,"[2]; hyperglycemic group (HG), vs initial body weight before MCAO, FIG. 1B",no reduction in body weight
same,degree of neuronal cell death in cerebral cortex (cresyl violet staining),[3],higher
same,activated astrocytes (GFAP staining),[4],less observed
same,intracellular AGE staining,[4],less observed
same,intracellular MGH1 staining,[4],less observed
same,neuronal cell death / number of live cells in cerebral cortex (cresyl violet staining),[4],the number of live cells was larger
same,MGH1 protein expression level in brain tissue (Western blot),"[5]; between all groups, FIG. 3",no significant difference
same,AGE expression level in brain tissue (Western blot),[5]; vs HG-vehicle,significantly lower
same,GFAP expression level in brain tissue (Western blot),[5]; vs HG-vehicle,significantly lower
same,MGH1 protein expression level in brain tissue (Western blot),"[6]; between all groups, FIG. 3",no significant difference
same,AGE expression level in brain tissue (Western blot),[6]; vs NG-vehicle,no significant difference
same,RAGE expression level in brain tissue (Western blot),[6]; vs NG-vehicle,no significant difference
same,cross-sectional area of injury,[7]; [10],difficult through the area photographs to confirm the degree of reduction
same,overall injury volume,[7]; [10],"decreased slightly in the NG-FPS-ZM1 group, but this decrease was not significant"
same,body weight change after MCAO,"[7]; normoglycemic group (NG), vs initial body weight before MCAO, FIG. 1B",decreased compared to the initial body weight
same,expression level of MMP-9 in brain tissue (real-time PCR),"[8]; HG, 30 min MCAO, vs HG-vehicle",significantly decreased in the HG-FPS-ZM1 group to a level similar to that in the sham group
same,expression levels of most vascular-related factors in brain tissue (real-time PCR),[8]; HG-FPS-ZM1 group compared to NG-FPS-ZM1 group,"increased in the HG-FPS-ZM1 group compared to the NG-FPS-ZM1 group, but there was no significant difference between the groups"
